Experimental data taken from US11878965B2, “Inhibitors of peptidylarginine deiminases” (Gilead Sciences, Inc., priority 2020, dated 2024).
pIC50: −log10 of the molar value.

Target: human PAD4 (Homo sapiens (Human), UniProt Q9UM07)
Test: In Vitro PAD4 BAEE Biochemical Assay
Settings: recombinant PAD4 5 nM, 2 mM calcium chloride, 3 mM BAEE substrate; geometric mean of multiple experiments
Outline: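 Deimination of BAEE substrate (3 mM) measured as ammonia via o-phthalaldehyde–DTT isoindole fluorescence, 405/535 nm. Tag-free bacterially expressed human PAD4 at 5 nM with 2 mM calcium chloride, pH 7.6 MOPS buffer, 30 min compound preincubation then 2 h reaction, both at 25 °C.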

human PAD4, sequence (Q9UM07 2-663): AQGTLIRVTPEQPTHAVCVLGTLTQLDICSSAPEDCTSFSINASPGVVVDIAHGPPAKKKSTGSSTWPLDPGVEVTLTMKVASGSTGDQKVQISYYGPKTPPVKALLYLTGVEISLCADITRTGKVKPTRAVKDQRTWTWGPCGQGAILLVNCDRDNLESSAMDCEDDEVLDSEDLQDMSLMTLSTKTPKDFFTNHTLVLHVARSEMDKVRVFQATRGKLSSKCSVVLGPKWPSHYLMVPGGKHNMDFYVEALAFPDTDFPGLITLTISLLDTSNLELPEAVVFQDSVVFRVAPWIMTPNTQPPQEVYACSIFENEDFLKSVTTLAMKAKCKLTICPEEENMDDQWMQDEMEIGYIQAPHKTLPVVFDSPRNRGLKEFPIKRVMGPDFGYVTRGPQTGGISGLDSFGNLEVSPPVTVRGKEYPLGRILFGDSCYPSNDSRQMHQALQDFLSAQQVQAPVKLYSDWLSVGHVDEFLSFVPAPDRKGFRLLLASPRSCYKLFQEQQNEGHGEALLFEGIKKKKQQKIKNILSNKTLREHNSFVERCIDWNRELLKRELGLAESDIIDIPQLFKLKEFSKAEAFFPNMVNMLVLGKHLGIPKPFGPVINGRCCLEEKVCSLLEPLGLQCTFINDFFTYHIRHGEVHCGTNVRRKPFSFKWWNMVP

Compound | pIC50
COc1cc(C(=O)N2C[C@H](N)[C@@H]3CC[C@H]2C3)cc2nc(-c3cc4ccc([C@@H](C)NC(=O)c5ccccc5Cl)nc4n3CC3CC3)n(C)c12 [Example 293, N-((R)-1-(2-(5-((1S,4R,5R)-4-amino-2-azabicyclo [3.2.1]octane-2-carbonyl)-7-methoxy-1-methyl-1H-benzo[d]imidazol-2-yl)-1-(cyclopropylmethyl)-1H-pyrrolo[2,3-b]pyridin-6-yl)ethyl)-2-chlorobenzamide] | 7.09
COc1cc(C(=O)N2C[C@H](N)[C@@H]3CC[C@H]2C3)cc2nc(-c3cc4ccc([C@@H](C)NC(=O)c5ccccc5OC(F)(F)F)nc4n3CC3CC3)n(C)c12 [Example 294, N-((R)-1-(2-(5-((1S,4R,5R)-4-amino-2-azabicyclo [3.2.1]octane-2-carbonyl)-7-methoxy-1-methyl-1H-benzo[d]imidazol-2-yl)-1-(cyclopropylmethyl)-1H-pyrrolo[2,3-b]pyridin-6-yl)ethyl)-2-(trifluoromethoxy)benzamide] | 6.56
COc1cc(C(=O)N2C[C@H](N)[C@@H]3CC[C@H]2C3)cc2nc(-c3cc4ccc([C@@H](C)NC(=O)c5c(F)cccc5F)nc4n3CC3CC3)n(C)c12 [Example 295, N-((R)-1-(2-(5-((1S,4R,5R)-4-amino-2-azabicyclo[3.2.1]octane-2-carbonyl)-7-methoxy-1-methyl-1H-benzo[d]imidazol-2-yl)-1-(cyclopropylmethyl)-1H-pyrrolo[2,3-b]pyridin-6-yl)ethyl)-2,6-difluorobenzamide] | 7.18
COc1cc(C(=O)N2C[C@H](N)[C@@H]3CC[C@H]2C3)cc2nc(-c3cc4ccc([C@@H](C)NC(=O)c5ccnc(C(F)F)c5)nc4n3CC3CC3)n(C)c12 [Example 296, N-((R)-1-(2-(5-((1S,4R,5R)-4-amino-2-azabicyclo[3.2.1]octane-2-carbonyl)-7-methoxy-1-methyl-1H-benzo[d]imidazol-2-yl)-1-(cyclopropylmethyl)-1H-pyrrolo[2,3-b]pyridin-6-yl)ethyl)-2-(difluoromethyl)isonicotinamide] | 7.13
COc1cc(C(=O)N2C[C@H](N)[C@@H]3CC[C@H]2C3)cc2nc(-c3cc4ccc([C@@H](C)NC(=O)c5ccc(C(F)F)nc5)nc4n3CC3CC3)n(C)c12 [Example 297, N-((R)-1-(2-(5-((1S,4R,5R)-4-amino-2-azabicyclo[3.2.1]octane-2-carbonyl)-7-methoxy-1-methyl-1H-benzo[d]imidazol-2-yl)-1-(cyclopropylmethyl)-1H-pyrrolo[2,3-b]pyridin-6-yl)ethyl)-6-(difluoromethyl)nicotinamide] | 7.18
COc1cc(C(=O)N2C[C@H](N)[C@@H]3CC[C@H]2C3)cc2nc(-c3cc4ccc([C@@H](C)NC(=O)c5ccnc(Cl)c5)nc4n3CC3CC3)n(C)c12 [Example 298, N-((R)-1-(2-(5-((1S,4R,5R)-4-amino-2-azabicyclo[3.2.1]octane-2-carbonyl)-7-methoxy-1-methyl-1H-benzo[d]imidazol-2-yl)-1-(cyclopropylmethyl)-1H-pyrrolo[2,3-b]pyridin-6-yl)ethyl)-2-chloroisonicotinamide] | 7.06
COc1cc(C(=O)N2C[C@H](N)[C@@H]3CC[C@H]2C3)cc2nc(-c3cc4ccc([C@@H](C)NC(=O)C56C7C8C9C7C5C9C86)nc4n3CC3CC3)n(C)c12 (stereo partly drawn) [Example 299, N-((R)-1-(2-(5-((1S,4R,5R)-4-amino-2-azabicyclo[3.2.1]octane-2-carbonyl)-7-methoxy-1-methyl-1H-benzo[d]imidazol-2-yl)-1-(cyclopropylmethyl)-1H-pyrrolo[2,3-b]pyridin-6-yl)ethyl)cubane-1-carboxamide] | 7.13
COc1cc(C(=O)N2C[C@H](N)[C@@H]3CC[C@H]2C3)cc2nc(-c3cc4ccc([C@@H](C)NC(=O)c5ccc(C(C)(C)O)nc5)nc4n3CC3CC3)n(C)c12 [Example 300, N-((R)-1-(2-(5-((1S,4R,5R)-4-amino-2-azabicyclo[3.2.1]octane-2-carbonyl)-7-methoxy-1-methyl-1H-benzo[d]imidazol-2-yl)-1-(cyclopropylmethyl)-1H-pyrrolo[2,3-b]pyridin-6-yl)ethyl)-6-(2-hydroxypropan-2-yl)nicotinamide] | 7.14
[2H]C1([2H])[C@H](N)[C@@H]2CC[C@@H](C2)N1C(=O)c1cc(OC)c2c(c1)nc(-c1cc3ccc(C(C)NC(=O)C45CC(F)(C4)C5)nc3n1CC1CC1)n2C (stereo partly drawn) [Example 301, N-((R)-1-(2-(5-((1S,4R,5R)-4-amino-2-azabicyclo[3.2.1]octane-2-carbonyl-3,3-d2)-7-methoxy-1-methyl-1H-benzo[d]imidazol-2-yl)-1-(cyclopropylmethyl)-1H-pyrrolo[2,3-b]pyridin-6-yl)ethyl)-3-fluorobicyclo[1.1.1]pentane-1-carboxamide] | 7.18
C[C@@H](NC(=O)C1(C#N)CC1)c1ccc2cc(-c3nc4cc(C(=O)N5C[C@H](N)[C@@H]6CC[C@H]5C6)cc(F)c4n3C3CC3)n(CC3CC3)c2n1 [Example 303, N-((R)-1-(2-(5-((1S,4R,5R)-4-amino-2-azabicyclo[3.2.1]octane-2-carbonyl)-1-cyclopropyl-7-fluoro-1H-benzo[d]imidazol-2-yl)-1-(cyclopropylmethyl)-1H-pyrrolo[2,3-b]pyridin-6-yl)ethyl)-1-cyanocyclopropane-1-carboxamide] | 7.08
C[C@@H](NC(=O)C1CCOCC1)c1ccc2cc(-c3nc4cc(C(=O)N5C[C@H](N)[C@@H]6CC[C@H]5C6)cc(F)c4n3C3CC3)n(CC3CC3)c2n1 [Example 304, N-((R)-1-(2-(5-((1S,4R,5R)-4-amino-2-azabicyclo[3.2.1]octane-2-carbonyl)-1-cyclopropyl-7-fluoro-1H-benzo[d]imidazol-2-yl)-1-(cyclopropylmethyl)-1H-pyrrolo[2,3-b]pyridin-6-yl)ethyl)tetrahydro-2H-pyran-4-carboxamide] | 7.31
COc1cc(C(=O)N2C[C@H](N)[C@@H]3CC[C@H]2C3)cc2nc(-c3cc4ccc([C@@H](C)NC(=O)c5cccnc5C(F)F)nc4n3CC3CC3)n(C)c12 [Example 305, N-((R)-1-(2-(5-((1S,4R,5R)-4-amino-2-azabicyclo[3.2.1]octane-2-carbonyl)-7-methoxy-1-methyl-1H-benzo[d]imidazol-2-yl)-1-(cyclopropylmethyl)-1H-pyrrolo[2,3-b]pyridin-6-yl)ethyl)-2-(difluoromethyl)nicotinamide] | 7.14
COc1cc(C(=O)N2C[C@H](N)[C@@H]3CC[C@H]2C3)cc2nc(-c3cc4ccc([C@@H](C)NC(=O)c5cccnc5C(F)(F)F)nc4n3CC3CC3)n(C)c12 [Example 306, N-((R)-1-(2-(5-((1S,4R,5R)-4-amino-2-azabicyclo[3.2.1]octane-2-carbonyl)-7-methoxy-1-methyl-1H-benzo[d]imidazol-2-yl)-1-(cyclopropylmethyl)-1H-pyrrolo[2,3-b]pyridin-6-yl)ethyl)-2-(trifluoromethyl)nicotinamide] | 7.03
COc1cc(C(=O)N2C[C@H](N)[C@@H]3CC[C@H]2C3)cc2nc(-c3cc4ccc([C@@H](C)NC(=O)c5cccc(C(F)F)n5)nc4n3CC3CC3)n(C)c12 [Example 307, N-((R)-1-(2-(5-((1S,4R,5R)-4-amino-2-azabicyclo[3.2.1]octane-2-carbonyl)-7-methoxy-1-methyl-1H-benzo[d]imidazol-2-yl)-1-(cyclopropylmethyl)-1H-pyrrolo[2,3-b]pyridin-6-yl)ethyl)-6-(difluoromethyl) picolinamide] | 6.42
